# How the values were obtained:
# Homo sapiens = organism: Homo sapiens; assay: Selectivity ratio of IC50 for alphavbeta5 integrin receptor-mediated cell adhesion to vitronectin in human HT-29 cells to IC50 for alphavbeta3 integrin receptor-mediated cell adhesion to fibrinogen in human HEK293 cells; format: cell-based
# Integrin alpha-V/beta-3 [1] = molecular target: T1, Integrin alpha-V/beta-3 (Homo sapiens, UniProt P05106+P06756); assay: Inhibition of alphavbeta3 integrin receptor-mediated cell adhesion to fibrinogen in human HEK293 cells; format: cell-based
# T1 sequence (P05106 27-788 limits assumed): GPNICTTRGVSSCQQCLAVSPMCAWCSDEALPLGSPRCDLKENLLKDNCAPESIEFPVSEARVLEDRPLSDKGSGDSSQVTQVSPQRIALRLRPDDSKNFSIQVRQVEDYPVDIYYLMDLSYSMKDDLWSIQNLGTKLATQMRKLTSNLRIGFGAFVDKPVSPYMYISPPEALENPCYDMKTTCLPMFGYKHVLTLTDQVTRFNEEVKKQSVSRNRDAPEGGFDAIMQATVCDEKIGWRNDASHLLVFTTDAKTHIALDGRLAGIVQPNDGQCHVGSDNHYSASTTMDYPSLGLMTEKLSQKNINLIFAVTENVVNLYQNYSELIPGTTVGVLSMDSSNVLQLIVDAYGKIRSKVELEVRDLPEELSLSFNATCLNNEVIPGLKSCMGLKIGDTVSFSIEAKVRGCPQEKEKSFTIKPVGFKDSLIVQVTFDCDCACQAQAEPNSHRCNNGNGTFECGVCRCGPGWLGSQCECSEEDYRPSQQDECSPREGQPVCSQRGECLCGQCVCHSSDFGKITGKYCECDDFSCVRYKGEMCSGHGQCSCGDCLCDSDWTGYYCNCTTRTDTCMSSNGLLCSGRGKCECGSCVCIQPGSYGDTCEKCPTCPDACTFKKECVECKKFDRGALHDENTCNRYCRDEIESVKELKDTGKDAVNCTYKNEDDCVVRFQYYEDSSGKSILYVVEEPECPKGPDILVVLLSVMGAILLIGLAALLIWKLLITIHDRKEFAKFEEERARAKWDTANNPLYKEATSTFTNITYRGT
# T1 sequence (P06756 31-889 limits assumed): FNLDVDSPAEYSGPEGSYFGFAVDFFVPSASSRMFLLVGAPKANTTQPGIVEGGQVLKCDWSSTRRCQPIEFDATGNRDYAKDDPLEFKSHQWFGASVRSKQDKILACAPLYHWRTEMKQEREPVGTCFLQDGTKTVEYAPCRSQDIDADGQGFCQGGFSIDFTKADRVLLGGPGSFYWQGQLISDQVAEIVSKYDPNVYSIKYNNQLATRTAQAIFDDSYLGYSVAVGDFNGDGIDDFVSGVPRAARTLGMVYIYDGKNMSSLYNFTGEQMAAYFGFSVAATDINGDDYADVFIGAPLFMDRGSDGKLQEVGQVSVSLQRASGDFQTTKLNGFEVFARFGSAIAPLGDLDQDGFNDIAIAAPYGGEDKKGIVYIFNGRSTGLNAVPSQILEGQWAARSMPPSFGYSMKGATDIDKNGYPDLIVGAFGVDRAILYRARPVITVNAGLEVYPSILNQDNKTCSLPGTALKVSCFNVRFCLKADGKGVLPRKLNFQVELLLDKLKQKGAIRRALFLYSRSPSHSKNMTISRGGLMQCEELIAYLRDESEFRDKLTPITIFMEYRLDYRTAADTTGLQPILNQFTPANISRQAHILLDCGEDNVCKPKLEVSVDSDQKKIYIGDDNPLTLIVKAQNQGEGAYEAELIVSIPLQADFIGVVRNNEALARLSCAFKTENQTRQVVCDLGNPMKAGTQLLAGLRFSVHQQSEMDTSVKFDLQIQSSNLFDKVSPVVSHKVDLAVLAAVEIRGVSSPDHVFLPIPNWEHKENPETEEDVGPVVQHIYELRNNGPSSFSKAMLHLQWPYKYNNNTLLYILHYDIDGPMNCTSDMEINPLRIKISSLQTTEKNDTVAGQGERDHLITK
# T1 sequence (P06756 891-1048 limits assumed): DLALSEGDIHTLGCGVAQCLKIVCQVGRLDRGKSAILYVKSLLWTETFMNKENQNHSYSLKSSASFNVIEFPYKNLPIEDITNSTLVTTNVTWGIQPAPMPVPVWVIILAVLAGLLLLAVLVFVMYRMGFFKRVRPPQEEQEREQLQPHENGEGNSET
# Integrin alpha-V/beta-5 = Integrin alpha-V/beta-5 (Homo sapiens, UniProt P06756+P18084); assay: Inhibition of alphavbeta5 integrin receptor-mediated cell adhesion to vitronectin in human HT-29 cells; format: cell-based
# Integrin alpha-V/beta-3 [2] = molecular target: T1, Integrin alpha-V/beta-3; assay: Inhibition of alphavbeta3 integrin receptor-mediated cell adhesion to fibrinogen in human SK-OV-3 cells […] integrin receptor; format: cell-based
# [3] = molecular target: Integrin alpha-IIb/beta-3 (Homo sapiens, UniProt P05106+P08514); assay: Inhibition of alpha2bbeta3 integrin receptor expressed on human surface of platelets; format: cell-based, Platelet
# Sequence of Integrin alpha-IIb/beta-3 (P05106 27-788 limits assumed): as the sequence (P05106 27-788 limits assumed) above
# Sequence of Integrin alpha-IIb/beta-3 (P08514 32-887 limits assumed): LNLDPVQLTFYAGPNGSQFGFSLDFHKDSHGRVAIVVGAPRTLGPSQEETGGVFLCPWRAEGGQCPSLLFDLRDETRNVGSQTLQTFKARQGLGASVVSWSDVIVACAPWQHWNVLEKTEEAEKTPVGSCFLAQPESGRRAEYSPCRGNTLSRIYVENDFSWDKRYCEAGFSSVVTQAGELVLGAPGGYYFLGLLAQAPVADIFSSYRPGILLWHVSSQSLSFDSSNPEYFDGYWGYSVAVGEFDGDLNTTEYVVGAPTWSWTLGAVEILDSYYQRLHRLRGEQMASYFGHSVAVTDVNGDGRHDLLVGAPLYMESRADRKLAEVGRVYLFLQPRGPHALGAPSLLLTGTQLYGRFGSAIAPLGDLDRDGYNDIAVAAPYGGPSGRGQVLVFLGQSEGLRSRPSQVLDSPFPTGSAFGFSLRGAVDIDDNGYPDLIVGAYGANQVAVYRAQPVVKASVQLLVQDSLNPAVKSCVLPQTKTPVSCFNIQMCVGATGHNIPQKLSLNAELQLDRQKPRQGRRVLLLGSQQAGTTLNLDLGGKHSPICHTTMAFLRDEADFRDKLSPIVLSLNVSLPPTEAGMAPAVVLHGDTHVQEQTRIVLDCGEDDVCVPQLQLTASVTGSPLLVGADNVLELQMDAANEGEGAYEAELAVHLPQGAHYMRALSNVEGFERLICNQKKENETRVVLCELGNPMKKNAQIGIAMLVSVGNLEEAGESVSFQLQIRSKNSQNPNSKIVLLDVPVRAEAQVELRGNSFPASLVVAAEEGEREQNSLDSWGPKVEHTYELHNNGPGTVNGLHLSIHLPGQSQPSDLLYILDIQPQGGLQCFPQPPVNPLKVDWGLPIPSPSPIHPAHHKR
# Sequence of Integrin alpha-IIb/beta-3 (P08514 891-1039 limits assumed): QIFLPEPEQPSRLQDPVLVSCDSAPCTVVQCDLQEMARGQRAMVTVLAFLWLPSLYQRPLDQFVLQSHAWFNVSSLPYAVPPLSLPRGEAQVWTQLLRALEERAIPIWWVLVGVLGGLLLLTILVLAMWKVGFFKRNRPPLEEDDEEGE
# Integrin alpha-5/beta-1 = Integrin alpha-5/beta-1 (Homo sapiens, UniProt P05556+P08648); assay: Inhibition of alpha5beta1 integrin receptor expressed on human surface of adipose tissue-derived stem cells; format: cell-based, Adipose tissue derived mesenchymal stem cell
# Sequence of Integrin alpha-5/beta-1 (P05556 21-798 limits assumed): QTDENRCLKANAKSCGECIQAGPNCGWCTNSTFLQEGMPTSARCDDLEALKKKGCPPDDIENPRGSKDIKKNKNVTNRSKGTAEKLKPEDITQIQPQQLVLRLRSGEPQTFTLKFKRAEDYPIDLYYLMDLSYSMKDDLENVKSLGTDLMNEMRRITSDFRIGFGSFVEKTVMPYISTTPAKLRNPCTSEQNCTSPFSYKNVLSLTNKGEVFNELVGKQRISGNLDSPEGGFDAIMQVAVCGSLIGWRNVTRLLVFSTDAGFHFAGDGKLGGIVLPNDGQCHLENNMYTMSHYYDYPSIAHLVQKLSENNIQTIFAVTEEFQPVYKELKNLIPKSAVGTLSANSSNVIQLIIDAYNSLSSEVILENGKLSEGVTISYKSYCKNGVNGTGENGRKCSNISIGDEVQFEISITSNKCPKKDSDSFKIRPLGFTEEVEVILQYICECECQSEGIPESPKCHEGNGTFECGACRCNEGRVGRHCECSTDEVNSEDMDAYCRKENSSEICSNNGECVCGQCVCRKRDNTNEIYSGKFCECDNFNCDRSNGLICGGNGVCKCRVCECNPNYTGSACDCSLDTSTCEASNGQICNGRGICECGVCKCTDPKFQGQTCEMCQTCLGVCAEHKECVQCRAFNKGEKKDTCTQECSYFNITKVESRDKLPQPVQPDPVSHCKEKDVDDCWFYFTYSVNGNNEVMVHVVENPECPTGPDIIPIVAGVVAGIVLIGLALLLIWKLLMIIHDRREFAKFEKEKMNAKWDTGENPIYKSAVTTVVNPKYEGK
# Sequence of Integrin alpha-5/beta-1 (P08648 42-894 limits assumed): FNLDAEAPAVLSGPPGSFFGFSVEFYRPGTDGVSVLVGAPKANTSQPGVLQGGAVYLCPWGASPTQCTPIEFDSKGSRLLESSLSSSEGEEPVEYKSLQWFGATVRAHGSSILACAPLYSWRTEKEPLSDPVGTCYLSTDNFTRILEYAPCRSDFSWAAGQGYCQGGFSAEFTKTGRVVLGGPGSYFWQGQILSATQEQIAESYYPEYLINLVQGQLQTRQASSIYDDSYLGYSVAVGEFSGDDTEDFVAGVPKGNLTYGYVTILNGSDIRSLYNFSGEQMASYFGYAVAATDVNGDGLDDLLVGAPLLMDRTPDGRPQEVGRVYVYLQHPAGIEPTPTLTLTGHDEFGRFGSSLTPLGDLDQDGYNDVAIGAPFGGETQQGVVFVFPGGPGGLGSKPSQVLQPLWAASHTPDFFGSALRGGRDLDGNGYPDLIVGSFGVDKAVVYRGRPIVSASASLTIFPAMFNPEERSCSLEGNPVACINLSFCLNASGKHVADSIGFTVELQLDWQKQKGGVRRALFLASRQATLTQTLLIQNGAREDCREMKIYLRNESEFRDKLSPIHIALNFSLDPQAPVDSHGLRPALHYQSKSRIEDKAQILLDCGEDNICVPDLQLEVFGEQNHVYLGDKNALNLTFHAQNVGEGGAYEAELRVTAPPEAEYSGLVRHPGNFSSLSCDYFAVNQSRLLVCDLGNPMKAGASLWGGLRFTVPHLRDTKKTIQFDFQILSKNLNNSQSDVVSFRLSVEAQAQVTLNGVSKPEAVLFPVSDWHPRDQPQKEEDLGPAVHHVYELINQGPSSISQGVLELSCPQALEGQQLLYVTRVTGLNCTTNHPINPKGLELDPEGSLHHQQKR
# Sequence of Integrin alpha-5/beta-1 (P08648 895-1049 limits assumed): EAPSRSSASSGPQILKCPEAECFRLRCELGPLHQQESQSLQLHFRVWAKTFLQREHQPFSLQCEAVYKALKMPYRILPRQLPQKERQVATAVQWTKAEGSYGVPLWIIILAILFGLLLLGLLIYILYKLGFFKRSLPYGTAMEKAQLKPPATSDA
IC50 (Integrin alpha-V/beta-3 [1]),IC50 (Integrin alpha-V/beta-5),IC50 (Integrin alpha-V/beta-3 [2]),IC50 [3],IC50 (Integrin alpha-5/beta-1),Compound,Ratio IC50 (Homo sapiens)
8.43 µM,208 µM,34 µM,> 1 µM,0.154 µM,CC(C)C[C@@H]1NC(=O)[C@@H]2CSSC[C@@H]3NC(=O)[C@H](CSSC[C@H](NC(=O)[C@H](C(C)C)NC(=O)[C@@H](Cc4ccccc4)NC(=O)[C@H](CC(=O)O)NC(=O)CNC(=O)[C@H](CCCNC(=N)N)NC3=O)C(=O)N[C@@H](CCCNC(=N)N)C(=O)NCC(=O)N[C@@H](CC(=O)O)C(=O)N[C@H](Cc3ccccc3)C(=O)N[C@@H](C(C)C)C(=O)N2)NC(=O)CNC(=O)CNC(=O)[C@H]([C@@H](C)O)NC(=O)[C@H](CCCCN)NC(=O)[C@@H]2CCCN2C1=O,0.041
0.2 µM,30.2 µM,25.1 µM,> 1 µM,0.154 µM,CC(C)C[C@@H]1NC(=O)[C@@H]2CSCc3cc4cc(c3)CSC[C@H](NC(=O)[C@H](C(C)C)NC(=O)[C@@H](Cc3ccccc3)NC(=O)[C@H](CC(=O)O)NC(=O)CNC(=O)[C@H](CCCNC(=N)N)NC(=O)[C@H](CSC4)NC(=O)CNC(=O)CNC(=O)CNC(=O)[C@H]([C@H](C)O)NC(=O)[C@H](CCCCN)NC(=O)[C@@H]3CCCN3C1=O)C(=O)N[C@@H](CCCNC(=N)N)C(=O)NCC(=O)N[C@H](CC(=O)O)C(=O)N[C@H](Cc1ccccc1)C(=O)N[C@H](C(C)C)C(=O)N2,0.006

# Reference: ChEMBL document CHEMBL5104133, “Sortase A-mediated cyclization of novel polycyclic RGD peptides for ανβ3 integrin targeting” (Bioorg Med Chem Lett, 2022)
